Read-outs that look alike come from different tables or passages of the source.
Experiments:
[1] = tested on: KRAS G12D mutant-positive pancreatic cancer line AsPC-1; experiment: Non-anchorage-dependent cell growth inhibitory activity in AsPC-1 (spheroid 3D culture); assay type: cell-based; conditions: Homo sapiens, ASPC1, 144 h, read-out: IC50, non-anchorage-dependent cell growth inhibition
Description: The non-anchorage-dependent cell growth inhibitory activities of subject compounds were evaluated by spheroid 3D cell culture.
AsPC-1 cells were seeded at 36 μL/well on a low-cell-adhesive round bottom 384-well plate (Prime Surface: from Sumitomo Bakelite) to give 5×10^2 cells per well. The cell culture was performed under the same conditions as in the Test Example 2.
The next day, the subject compounds (6 points having final concentrations in the range of 10 μM to 3.0 nM) and DMSO, which was the solvent for the subject compounds, as a negative control were diluted 100-fold with a fresh medium and were each added at 4 μL per well. After culturing in the presence of 5% CO2 at 37° C. for six days, CellTiter Glo 2.0 (from Promega) was added at 20 μL per well. After stirring with a plate mixer (from FINEPCR) at normal temperature for an hour, the luminescent signals were measured with ARVO X3 (from PerkinElmer).
With the signaling value in treatment with DMSO taken as 0% inhibition and with the signaling value in the medium alone without cells taken as 100% inhibition, the 50% inhibition values (IC50) were calculated by Sigmoid-Emax model nonlinear regression analysis.

[2] = target: KRAS G12D/SOS/c-Raf complex (Homo sapiens (Human), UniProt P01116, G12D); experiment: KRAS G12D/SOS/c-Raf complex formation inhibitory activity (TR-FRET); assay type: biochemical; conditions: human recombinant proteins, 1 hour at room temperature, read-out: IC50, KRAS G12D/SOS/c-Raf complex formation inhibition
Sequence of KRAS G12D/SOS/c-Raf complex (P01116 other isoform, or with tags, fused parts or gaps G12D): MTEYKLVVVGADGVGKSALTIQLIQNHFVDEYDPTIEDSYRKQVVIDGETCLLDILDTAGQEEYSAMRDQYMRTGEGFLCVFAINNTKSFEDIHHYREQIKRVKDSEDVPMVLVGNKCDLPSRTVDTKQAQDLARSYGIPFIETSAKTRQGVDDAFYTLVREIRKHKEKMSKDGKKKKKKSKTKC
Description: Using human recombinant KRAS G12D, SOS and c-Raf proteins, the inhibitory activity of subject compounds on the complex formation of the proteins was examined by a time-resolved fluorescence resonance energy transfer (TR-FRET) method.
Biotinylated AviTag-KRAS G12D (amino acid region of 1-185, GDP) (2.5 μL; 400 nM) and subject compounds dissolved in an assay buffer (50 mM HEPES, 150 mM NaCl, 5 mM MgCl2, 0.05% Tween 20, pH 7.0) were added to a 384-well plate (from Corning) in a liquid volume of 2.5 μL at 40,000 nM to 40 nM. Son of Sevenless (SOS) (amino acid region of 564-1049, 2.5 μL; 1.3 μM) and c-Raf (amino acid region of 51-131) GST (2.5 μL; 130 nM) containing GTP (from Sigma-Aldrich; 2 μM) were added to the plate, and the plate was allowed to stand for 1 hour at room temperature. Then, a mixture liquid (10 μL) of LANCE Ulight-anti-GST (from PerkinElmer; 120 nM) and LANCE Eu-W1024 labeled Streptoavidin (from PerkinElmer; 100 ng/mL) was added, and the 620-nm and 665-nm fluorescence intensities were measured using EnVision 2104 (from PerkinElmer) under the conditions of an excitation wavelength of 337 nm. After standardizing the values with the fluorescence intensity at a reference wavelength of 620 nm, the 50% inhibitory concentrations (IC50) were calculated by Sigmoid-Emax model nonlinear regression analysis with the signaling value in treatment with the solvent taken as 0% inhibition and with the signaling value without the addition of GTP taken as 100% inhibition.

[3] = tested on: ERK phosphorylation (Thr202/Tyr204) in KRAS G12D mutant-positive pancreatic cancer line AsPC-1; experiment: ERK phosphorylation inhibitory activity in AsPC-1 (cell ELISA); assay type: cell-based; conditions: Homo sapiens, ASPC1; AsPC-1 cells, 2 hours culture, cell ELISA; read-out: IC50, ERK phosphorylation inhibition
Description: The ERK phosphorylation inhibitory activities of subject compounds were evaluated by measuring phosphorylation of the 202th threonine (Thr202) and the 204th tyrosine (Tyr204) of ERK located downstream of the KRAS signal by cell ELISA.
AsPC-1 cells (ATCC, CRL-1682) were seeded at 36 μL/well on a 384-well plate (from Greiner bio-one) to give 2.0×10^4 cells per well. As for the cell culture conditions, RPMI-1640 medium (from Sigma-Aldrich) containing 10% fetal bovine serum (from GE Life Sciences) was used in the presence of 5% CO2 at 37° C.
The next day, the subject compounds (6 points having final concentrations in the range of 10 μM to 0.3 nM), trametinib (MEK inhibitor) of a final concentration of 1 μM as a positive control and DMSO, which was the solvent for the subject compounds, as a negative control were diluted 100-fold with a fresh medium and were each added at 4 μL per well, followed by culturing for 2 hours. After culturing, a 30% glyoxal solution (40% glyoxal [from Wako] was diluted with Phosphate Buffered Saline [PBS; from Wako) was quickly added at 30 μL per well, and the plate was allowed to stand for an hour at room temperature to thus immobilize the cells. Then, the plate was centrifuged (110× g, seven seconds, hereinafter centrifugation was performed under the same conditions unless otherwise specified) to remove the supernatant, and 0.1% Triton X-100 (from Amersham Biosciences)—containing PBS was added at 20 μL per well. After allowing the plate to stand for 10 minutes at room temperature, the supernatant was removed by centrifugation, and the same operation was further repeated. Next, 0.5% sodium dodecyl sulfate (SDS; from Invitrogen)-containing PBS was added at 20 μL per well. The plate was allowed to stand at room temperature for 30 minutes and was then centrifuged to remove the supernatant. Subsequently, a blocking solution (Intercept Blocking Buffer; from LI-COR Biosciences) was added at 20 μL per well, and the plate was allowed to stand for an hour at room temperature. The supernatant was removed by centrifugation, and an ERK (Thr202/Tyr204) phosphorylation antibody (Phospho-p44/42 MAPK (Erk 1/2) (Thr202/Tyr204) (D13.14.4E) XP Rabbit mAb; from Cell Signaling Technology) diluted 2,500-fold with the blocking solution was added at 10 μL per well as a primary antibody. The plate was allowed to stand at 4° C. overnight.
The next day, the plate was centrifuged to remove the supernatant, and 0.05% Tween-20-containing PBS (from Thermo Scientific; 20× PBS Tween-20 was diluted 20-fold with ion exchange water and used) was added at 20 μL per well. The supernatant was removed by centrifugation to thus wash each well. The washing was performed three times in total. After washing, an IRDye 800CW Goat anti-Rabbit IgG (from LI-COR Biosciences) diluted 1,000-fold with the blocking solution was added at 10 μL per well as a secondary antibody, and the plate was allowed to stand for an hour at room temperature. The plate was centrifuged to remove the supernatant, and each well was washed three times with 0.05% Tween-20-containing PBS in the same manner as after the primary antibody reaction. Centrifugation after the third washing was performed at 171×g for 17 seconds. After removing the supernatant, the plate was dried as it was with air at room temperature for three hours or more, and the 800-nm fluorescent signals were measured with Aerius (from LI-COR Biosciences).
With the signaling value at the time of addition of DMSO taken as 0% inhibition and with the signaling value at the time of addition of […] trametinib taken as 100% inhibition, the 50% inhibition values (IC50) were calculated by Sigmoid-Emax model nonlinear regression analysis.

[4] = AsPC-1 spheroid 3D culture, six days, CellTiter Glo 2.0

Structure (SMILES)	IC50 [1, 4]	IC50 [2]	IC50 [3]	IC50 [1]
Cc1c(F)cc2[nH]ncc2c1-c1c(C2CC2)cc2c(N3C[C@@H]4C[C@H]3CN4)nc(OC3CCOCC3)nc2c1OCc1ccc(Cn2c(=O)n(C)c3nccnc32)cc1 (single isomer, unassigned) [Example 1]	68 nM	44 nM	–	–
Cc1c(F)cc2[nH]ncc2c1-c1c(C2CC2)cc2c(N3C[C@@H]4C[C@H]3CN4)nc(OC3CCOCC3)nc2c1OCc1ccc(CN2CCN(C)CC2=O)cc1 [Example 2, 1-({4-[({6-cyclopropyl-4-[(1S,4S)-2,5-diazabicyclo[2.2.1]heptan-2-yl]-7-(6-fluoro-5-methyl-1H-indazol-4-yl)-2-[(oxan-4-yl)oxy]quinazolin-8-yl}oxy)methyl]phenyl}methyl)-4-methylpiperazin-2-one]	166 nM	96 nM	49 nM	–
Cc1c(F)cc2[nH]ncc2c1-c1c(C2CC2)cc2c(N3C[C@@H]4C[C@H]3CN4)nc(OC3CCOCC3)nc2c1OCc1ccc(Cc2ncn(C3COC3)n2)cc1 [Example 3, 6-cyclopropyl-4-[(1S,4S)-2,5-diazabicyclo[2.2.1]heptan-2-yl]-7-(6-fluoro-5-methyl-1H-indazol-4-yl)-2-[(oxan-4-yl)oxy]-8-[(4-{[1-(oxetan-3-yl)-1H-1,2,4-triazol-3-yl]methyl}phenyl)methoxy]quinazoline]	128 nM	75 nM	55 nM	–
Cc1c(F)cc2[nH]ncc2c1-c1c(C2CC2)cc2c(N3C[C@@H]4C[C@H]3CN4)nc(OC3CCOCC3)nc2c1OCc1ccc(CN2CCN(CC3CC3)CC2=O)cc1 [Example 7, 1-({4-[({6-cyclopropyl-4-[(1S,4S)-2,5-diazabicyclo[2.2.1]heptan-2-yl]-7-(6-fluoro-5-methyl-1H-indazol-4-yl)-2-[(oxan-4-yl)oxy]quinazolin-8-yl}oxy)methyl]phenyl}methyl)-4-(cyclopropylmethyl)piperazin-2-one]	–	105 nM	–	80 nM
CCc1nc(Cc2ccc(COc3c(-c4c(C)c(F)cc5[nH]ncc45)c(C4CC4)cc4c(N5C[C@@H]6C[C@H]5CN6)nc(OC5CCOCC5)nc34)cc2)nn1C [Example 15, 6-cyclopropyl-4-[(1S,4S)-2,5-diazabicyclo[2.2.1]heptan-2-yl]-8-({4-[(5-ethyl-1-methyl-1H-1,2,4-triazol-3-yl)methyl]phenyl}methoxy)-7-(6-fluoro-5-methyl-1H-indazol-4-yl)-2-[(oxan-4-yl)oxy]quinazoline]	–	88 nM	–	152 nM
Cc1c(F)cc2[nH]ncc2c1-c1c(C2CC2)cc2c(N3C[C@@H]4C[C@H]3CN4)nc(OC3CCOCC3)nc2c1OCc1ccc(Cc2nc3n(n2)CCC3)cc1 [Example 18, 6-cyclopropyl-4-[(1S,4S)-2,5-diazabicyclo[2.2.1]heptan-2-yl]-8-({4-[(6,7-dihydro-5H-pyrrolo[1,2-b][1,2,4]triazol-2-yl)methyl]phenyl}methoxy)-7-(6-fluoro-5-methyl-1H-indazol-4-yl)-2-[(oxan-4-yl)oxy]quinazoline]	–	92 nM	–	192 nM
Cc1c(F)cc2[nH]ncc2c1-c1c(C2CC2)cc2c(N3C[C@@H]4C[C@H]3CN4)nc(OC3CCOCC3)nc2c1OCc1ccc(Cc2ncn(C3CCOCC3)n2)cc1 [Example 19, 6-cyclopropyl-4-[(1S,4S)-2,5-diazabicyclo[2.2.1]heptan-2-yl]-7-(6-fluoro-5-methyl-1H-indazol-4-yl)-2-[(oxan-4-yl)oxy]-8-[(4-{[1-(oxan-4-yl)-1H-1,2,4-triazol-3-yl]methyl}phenyl)methoxy]quinazoline]	–	65 nM	–	189 nM
Cc1c(F)cc2[nH]ncc2c1-c1c(C2CC2)cc2c(N3C[C@@H]4C[C@H]3CN4)nc(OC3CCOCC3)nc2c1OCc1ccc(Cc2cn3ccncc3n2)cc1 [Example 20, 6-cyclopropyl-4-[(1S,4S)-2,5-diazabicyclo[2.2.1]heptan-2-yl]-7-(6-fluoro-5-methyl-1H-indazol-4-yl)-8-({4-[(imidazo[1,2-a]pyrazin-2-yl)methyl]phenyl}methoxy)-2-[(oxan-4-yl)oxy]quinazoline]	–	70 nM	–	138 nM
Cc1c(F)cc2[nH]ncc2c1-c1c(C2CC2)cc2c(N3C[C@@H]4C[C@H]3CN4)nc(OC3CCOCC3)nc2c1OCc1ccc(Cc2nc(C3CC3)n(C)n2)cc1 [Example 22, 6-cyclopropyl-8-({4-[(5-cyclopropyl-1-methyl-1H-1,2,4-triazol-3-yl)methyl]phenyl}methoxy)-4-[(1 S,4S)-2,5-diazabicyclo[2.2.1]heptan-2-yl]-7-(6-fluoro-5-methyl-1H-indazol-4-yl)-2-[(oxan-4-yl)oxy]quinazoline]	209 nM	161 nM	–	–
Cc1c(F)cc2[nH]ncc2c1-c1c(C2CC2)cc2c(N3C[C@@H]4C[C@H]3CN4)nc(OC3CCOCC3)nc2c1OCc1ccc(CN2C(=O)CN(C)c3ncccc32)cc1 [Example 23, 1-({4-[({6-cyclopropyl-4-[(1S,4S)-2,5-diazabicyclo[2.2.1]heptan-2-yl]-7-(6-fluoro-5-methyl-1H-indazol-4-yl)-2-[(oxan-4-yl)oxy]quinazolin-8-yl}oxy)methyl]phenyl}methyl)-4-methyl-3,4-dihydropyrido[2,3-b]pyrazin-2(1H)-one]	–	68 nM	–	–

Reference: patent US20240150366A1, “4-AMINOQUINAZOLINE COMPOUND” (Astellas Pharma Inc., priority 2021, published 2024)
